Data reported in patent US20020137929A1, “1 - (3-heterocyclylphenyl) isothiourea, -isourea, -guanidine and -amidine herbicidal agents” (Intellectual Property Department, BASF Aktiengesellschaft, priority 1998, published 2002).

What was measured:
[1] = test system: ABUTH (Velvetleaf); test: Preemergence herbicidal evaluation; type: in vivo, Abutilon theophrasti; details: rated 4-5 weeks after treatment, rating scale 0-9
In short: (§1)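 Test compound, dissolved in aqueous acetone, was sprayed over planted soil cups at an equivalent of about 0.0156 to 0.500 kg/ha; seeds had been mixed with potting soil. Greenhouse growth followed, with visual 0-9 scoring of injury at four to five weeks.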

[2] = test system: ECHCG (Barnyardgrass); test: Preemergence herbicidal evaluation; type: in vivo, Echinochloa crus-galli; details: rated 4-5 weeks after treatment, rating scale 0-9
In short: as §1

[3] = test system: IPOHE (Morningglory, Ivyleaf); test: Preemergence herbicidal evaluation; type: in vivo, Ipomoea hederacea; details: rated 4-5 weeks after treatment, rating scale 0-9
In short: as §1

[4] = test system: SETVI (Foxtail, Green); test: Postemergence herbicidal evaluation; type: in vivo, Setaria viridis; details: postemergence
In short: (§2)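 ~2-wk seedlings; postemergence spray, 40 psi; vehicle 1:1 acetone:water + 0.5% Tween 20; rate ≈0.0156–0.500 kg/ha; greenhouse hold; scored 4–5 wk after treatment, 0–9 scale vs control; repeat tests averaged.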

[5] = test system: GLXMAW (Soybean, Williams); test: Postemergence herbicidal evaluation; type: in vivo, Glycine max, (L.) Merr. cv Williams; details: postemergence
In short: as §2

[6] = test system: ABUTH (Velvetleaf); test: Postemergence herbicidal evaluation; type: in vivo, Abutilon theophrasti; details: postemergence
In short: as §2

[7] = test system: CYPSE (Flatsedge); test: Preemergence weed control under flooded paddy conditions; type: in vivo, Cyperus serotinus; details: rated 3-4 weeks after treatment
In short: (§3)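 Visual injury scored 0-9 against control three to four weeks post-treatment, greenhouse-grown. Application: acetone/water (50/50) solutions dosed directly into flood water (1.5-3 cm over silt loam, planted top 0.5 cm), roughly 0.0313 to 0.500 kg/ha active ingredient.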

[8] = test system: ECHORC (Watergrass (Calif.)); test: as above; type: in vivo, Echinochloa oryzoides; details: rated 3-4 weeks after treatment
In short: as §3

[9] = test system: CASOB (Sicklepod); test: Preemergence herbicidal evaluation; type: in vivo, Cassia obtusifolia; details: rated 4-5 weeks after treatment, rating scale 0-9
In short: as §1

[10] = test system: IPOHE (Morningglory, Ivyleaf); test: Postemergence herbicidal evaluation; type: in vivo, Ipomoea hederacea; details: postemergence
In short: as §2

[11] = test system: ZEAMX (Corn, Field); test: Postemergence herbicidal evaluation; type: in vivo, Zea mays; details: postemergence
In short: as §2

[12] = test system: AMBEL (Ragweed, Common); test: Preemergence herbicidal evaluation; type: in vivo, Ambrosia artemisifolia; details: rated 4-5 weeks after treatment, rating scale 0-9
In short: as §1

For `C=C1SC(=Nc2cc(-n3c(=O)cc(C(F)(F)F)n(C)c3=O)c(F)cc2Cl)N(CC(=O)OCC)C1=O` [Compound 154], the “Preemergence herbicidal rating ABUTH” value ([1]; rate 0.0156 kg/ha) was 9.0, the “Preemergence herbicidal rating ABUTH” value ([1]; rate 0.0313 kg/ha) was 9.0 and the “Preemergence herbicidal rating ABUTH” value ([1]; rate 0.0625 kg/ha) was 9.0. The “Preemergence herbicidal rating ABUTH” value ([1]; rate 0.1250 kg/ha) was 9.0, the “Preemergence herbicidal rating ABUTH” value ([1]; rate 0.2500 kg/ha) was 9.0 and the “Preemergence herbicidal rating ECHCG” value ([2]; rate 0.0156 kg/ha) was 0.0. For the same molecule, the “Preemergence herbicidal rating ECHCG” value ([2]; rate 0.0313 kg/ha) was 4.0, the “Preemergence herbicidal rating ECHCG” value ([2]; rate 0.0625 kg/ha) was 9.0 and the “Preemergence herbicidal rating ECHCG” value ([2]; rate 0.1250 kg/ha) was 9.0. The “Preemergence herbicidal rating ECHCG” value ([2]; rate 0.2500 kg/ha) was 9.0, the “Preemergence herbicidal rating IPOHE” value ([3]; rate 0.0156 kg/ha) was 0.0 and the “Preemergence herbicidal rating IPOHE” value ([3]; rate 0.0313 kg/ha) was 9.0. The “Preemergence herbicidal rating IPOHE” value ([3]; rate 0.0625 kg/ha) was 9.0, the “Preemergence herbicidal rating IPOHE” value ([3]; rate 0.1250 kg/ha) was 9.0 and the “Preemergence herbicidal rating IPOHE” value ([3]; rate 0.2500 kg/ha) was 9.0. The “Herbicidal rating SETVI” value ([4]; rate 0.0156 kg/ha) was 0.0, the “Herbicidal rating SETVI” value ([4]; rate 0.0313 kg/ha) was 0.0 and the “Herbicidal rating SETVI” value ([4]; rate 0.0625 kg/ha) was 5.0. For the same molecule, the “Herbicidal rating GLXMAW” value ([5]; rate 0.0156 kg/ha) was 5.5, the “Herbicidal rating GLXMAW” value ([5]; rate 0.0313 kg/ha) was 6.0 and the “Herbicidal rating GLXMAW” value ([5]; rate 0.0625 kg/ha) was 7.5. The “Herbicidal rating ABUTH” value ([6]; rate 0.0156 kg/ha) was 9.0, the “Herbicidal rating ABUTH” value ([6]; rate 0.0313 kg/ha) was 9.0 and the “Herbicidal rating ABUTH” value ([6]; rate 0.0625 kg/ha) was 9.0. For the same molecule, the “herbicidal effect rating, CYPSE” value ([7]; 0.0313 kg/ha) was 4.0, the “herbicidal effect rating, CYPSE” value ([7]; 0.0625 kg/ha) was 6.0 and the “herbicidal effect rating, CYPSE” value ([7]; 0.1250 kg/ha) was 9.0. For the same molecule, the “herbicidal effect rating, CYPSE” value ([7]; 0.2500 kg/ha) was 9.0, the “herbicidal effect rating, ECHORC” value ([8]; 0.0313 kg/ha) was 3.0 and the “herbicidal effect rating, ECHORC” value ([8]; 0.0625 kg/ha) was 4.0. The “herbicidal effect rating, ECHORC” value ([8]; 0.1250 kg/ha) was 7.0, the “herbicidal effect rating, ECHORC” value ([8]; 0.2500 kg/ha) was 7.0 and the “Preemergence herbicidal rating CASOB” value ([9]; rate 0.0156 kg/ha) was 0.0. The “Preemergence herbicidal rating CASOB” value ([9]; rate 0.0313 kg/ha) was 0.0, the “Preemergence herbicidal rating CASOB” value ([9]; rate 0.0625 kg/ha) was 9.0 and the “Preemergence herbicidal rating CASOB” value ([9]; rate 0.1250 kg/ha) was 9.0. The “Preemergence herbicidal rating CASOB” value ([9]; rate 0.2500 kg/ha) was 9.0, the “Herbicidal rating IPOHE” value ([10]; rate 0.0156 kg/ha) was 9.0 and the “Herbicidal rating IPOHE” value ([10]; rate 0.0313 kg/ha) was 9.0. The “Herbicidal rating IPOHE” value ([10]; rate 0.0625 kg/ha) was 9.0, the “Herbicidal rating ZEAMX” value ([11]; rate 0.0156 kg/ha) was 4.0 and the “Herbicidal rating ZEAMX” value ([11]; rate 0.0313 kg/ha) was 4.0. The “Herbicidal rating ZEAMX” value ([11]; rate 0.0625 kg/ha) was 5.0, the “Preemergence herbicidal rating AMBEL” value ([12]; rate 0.0156 kg/ha) was 3.0 and the “Preemergence herbicidal rating AMBEL” value ([12]; rate 0.0313 kg/ha) was 5.0. For the same molecule, the “Preemergence herbicidal rating AMBEL” value ([12]; rate 0.0625 kg/ha) was 9.0, the “Preemergence herbicidal rating AMBEL” value ([12]; rate 0.1250 kg/ha) was 9.0 and the “Preemergence herbicidal rating AMBEL” value ([12]; rate 0.2500 kg/ha) was 9.0.
